According to patent US10556854B2, “Bacterial efflux pump inhibitors” (RUTGERS, THE STATE UNIVERSITY OF NEW JERSEY, priority 2016, dated 2020):
Counter-ions that a name gives are not always drawn.

Tests used:
P. aeruginosa = experiment: MIC-based assay for potentiation of antibiotics that are known efflux pump substrates (Test A), P. aeruginosa; format: cell-based; conditions: fold lowering of MIC of antibiotic (e.g., clarithromycin and levofloxacin) with EPI compound at 1.6 to 12.5 μg/mL; Pseudomonas aeruginosa ATCC 27853
Source text: (§1) The ability of a compound disclosed herein to inhibit a bacterial efflux pump can be determined using a method like Test A or Test B as described in Example 13 and as shown in Table 1.
(§2) Test A. Minimum Inhibitory Concentration (MIC)-Based Assay for Potentiation of Antibiotics that are Known Efflux Pump Substrates:
(§3) MIC-based assays were used to evaluate the impact of potential efflux pump inhibiting (EPI) compounds on the MICs of antibiotics (e.g., clarithromycin and levofloxacin) known to be substrates for Gram-negative bacterial efflux pumps. The assays were conducted in accordance with Clinical and Laboratory Standards Institute (CLSI) guidelines for broth microdilution, with the modification that assays were conducted in the presence and absence of the test EPI compounds. When present, the EPI compounds were added to cation-adjusted Mueller-Hinton (CAMH) broth (Becton, Dickinson and Co., Franklin Lakes, N.J.) at a final concentration in the range of 1.6 to 12.5 μg/mL.
(§4) Log-phase Gram-negative bacteria were added to 96-well microtiter plates (at 5×10^5 colony forming units (CFU) per mL) containing two-fold serial dilutions of antibiotic in CAMH broth either in the absence or presence of the test EPI compounds. In all assays, each serial dilution of antibiotic was present in duplicate. The final volume in each well was 0.1 mL, and the microtiter plates were incubated aerobically for 24 hours at 37° C. Bacterial growth was then monitored by measuring the optical density (OD) at 600 nm using a VersaMax® plate reader (Molecular Devices, Inc., Sunnyvale, Calif.), with the MIC being defined as the lowest compound concentration at which growth was ≥90% inhibited compared to antibiotic-free control. The following Gram-negative bacterial strains were included in these assays: • Escherichia coli ATCC 25922 • Klebsiella pneumoniae ATCC 13883 and ATCC 10031 • Pseudomonas aeruginosa ATCC 27853. Test B. Fluorescence-Based Cellular Assay for Efflux Inhibition: […]

E. coli = experiment: MIC-based assay for potentiation of antibiotics that are known efflux pump substrates (Test A), E. coli; format: cell-based; conditions: fold lowering of MIC of antibiotic (e.g., clarithromycin and levofloxacin) with EPI compound at 1.6 to 12.5 μg/mL; Escherichia coli ATCC 25922
Source text: as §1, §2, §3, §4

| SMILES | Active in P. aeruginosa (P. aeruginosa) [x] | Active in E. coli (E. coli) [x] |
| --- | --- | --- |
| NC[C@@H](N)CCCNC(CCc1ccccc1)CCc1ccccc1 [Example 2, (S)—N^5-(1,5-diphenylpentan-3-yl)pentane-1,2,5-triamine 3 TFA] | ≥4 | ≥16 |
| NC[C@@H](N)CCCNCC(CCc1ccccc1)CCc1ccccc1 [Example 8, (S)—N^5-(2-phenethyl-4-phenylbutyl)pentane-1,2,5-triaminium 2,2,2-trifluoroacetate] | ≥32 | ≥32 |
| CC(C)C(N)CC[C@H](N)CNCC(CCc1ccccc1)CCc1ccccc1 (stereo partly shown) [Example 9] | <2 | ≥128 |
| NC[C@@H](N)CCNC(CCc1ccccc1)CCc1ccccc1 [Example 4, (S)—N^4-(1,5-diphenylpentan-3-yl)butane-1,2,4-triamine 3 TFA] | ≥2 | ≥2 |
| NCC(N)COCC(CCc1ccccc1)CCc1ccccc1 (stereo not shown) [Example 12, 3-(2-phenethyl-4-phenylbutoxy)propane-1,2-diamine] | <2 | 8 |
| NCC[C@H](N)CCNC(CCc1ccccc1)CCc1ccccc1 [Example 5, (S)—N^1-(1,5-Diphenylpentan-3-yl)pentane-1,3,5-triamine 3 TFA] | ≥16 | ≥32 |
| CC(C)C(N)CC[C@H](N)CNC(CCc1ccccc1)CCc1ccccc1.Cl.Cl.Cl (stereo partly drawn) [Example 10, (2S)—N^1-(1,5-diphenylpentan-3-yl)-6-methylheptane-1,2,5-triaminium chloride] | <2 | ≥256 |
| NCC(N)COC(CCc1ccccc1)CCc1ccccc1 (stereo not shown) [Example 11, 3-((1,5-diphenylpentan-3-yl)oxy)propane-1,2-diamine] | <2 | <2 |
| NCCC[C@H](N)CNCC(CCc1ccccc1)CCc1ccccc1 [Example 7, (S)—N^1-(2-phenethyl-4-phenylbutyl)pentane-1,2,5-triamine 3TFA] | ≥32 | ≥32 |
| NCCC[C@H](N)CNC(CCc1ccccc1)CCc1ccccc1 [Example 1, (S)—N^1-(1,5-Diphenylpentan-3-yl)pentane-1,2,5-triamine 3 TFA] | <2 | ≥8 |
| NCC[C@H](N)CNC(CCc1ccccc1)CCc1ccccc1 [Example 3, (S)—N^1-(1,5-diphenylpentan-3-yl)butane-1,2,4-triamine 3TFA] | ≥2 | ≥4 |
